From US20100267561A1, “HERBICIDAL PYRIDAZINONE DERIVATIVES” (priority 2007, published 2010)

Tests used:
Experiment in all cases: Test B pre-/postemergence plant response
Assay type in all cases: in vivo
[1] = tested on: large crabgrass (Digitaria sanguinalis); conditions: for Crabgrass, Large plant response rating: 8 g ai/ha
Procedure, shortened: (§1)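 Seeds were sown and sprayed preemergence, while plants at 2 to 18 cm (1- to 4-leaf stage) got postemergence sprays. Compounds were formulated in a non-phytotoxic solvent mixture with surfactant. After 13 to 15 days in a greenhouse, injury was rated visually against untreated controls, 0 (no effect) to 100 (complete control).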

[2] = tested on: Russian thistle (Salsola iberica); conditions: Preemergence; for Russian Thistle plant response rating: 8 g ai/ha
Procedure, shortened: as §1

[3] = tested on: cocklebur (Xanthium strumarium); conditions: for Cocklebur plant response rating: 8 g ai/ha
Procedure, shortened: as §1

[4] = Postemergence, 31 g ai/ha, scale 0 to 100, 0 no effect, 100 complete control
[5] = Postemergence, 62 g ai/ha, scale 0 to 100
[6] = Postemergence, 125 g ai/ha, scale 0 to 100
[7] = Postemergence, 250 g ai/ha, scale 0 to 100
[8] = Preemergence, 31 g ai/ha, 0 to 100 scale, 0 no effect, 100 complete control
[9] = Preemergence, 62 g ai/ha, scale 0 to 100
[10] = Preemergence, 125 g ai/ha, scale 0 to 100
[11] = Preemergence, 250 g ai/ha, scale 0 to 100
[12] = 31 g ai/ha, 0 to 100 scale, 0 no effect, 100 complete control
[13] = Preemergence, 16 g ai/ha, scale 0 to 100 (0 no effect, 100 complete control)
[14] = 16 g ai/ha, scale 0 to 100 (0 no effect, 100 complete control)
[15] = Postemergence, 16 g ai/ha, scale 0 to 100
[16] = Postemergence, 62 g ai/ha, scale 0 to 100, 0 no effect, 100 complete control
[17] = Postemergence, 31 g ai/ha, scale 0 to 100
[18] = 31 g ai/ha, scale 0 to 100 (0 no effect, 100 complete control)

CCc1cc(-c2ccc(C(F)(F)F)cc2)nn1-c1c(O)c(C)nn(C)c1=O [Compound 16]
20: Plant response rating, Crabgrass, Large [1, 10]
40: Plant response rating, Crabgrass, Large [1, 11]
95: Plant response rating, Crabgrass, Large [1, 4] | Plant response rating, Crabgrass, Large [1, 5]
100: Plant response rating, Crabgrass, Large [1, 6] | Plant response rating, Crabgrass, Large [1, 7]
0: Plant response rating, Crabgrass, Large [1, 8] | Plant response rating, Crabgrass, Large [1, 9] | Plant response rating, Russian Thistle [2, 12] | Plant response rating, Russian Thistle ([2]; 62 g ai/ha, scale 0 to 100) | Plant response rating, Russian Thistle ([2]; 125 g ai/ha, scale 0 to 100) | Plant response rating, Russian Thistle ([2]; 250 g ai/ha, scale 0 to 100) | Plant response rating, Cocklebur [3, 4] | Plant response rating, Cocklebur [3, 5] | Plant response rating, Cocklebur [3, 6] | Plant response rating, Cocklebur [3, 7] | Plant response rating, Cocklebur [3, 8] | Plant response rating, Cocklebur [3, 9] | Plant response rating, Cocklebur [3, 10] | Plant response rating, Cocklebur [3, 11]

Cc1cc(-c2ccc(C(F)(F)F)cc2)nn1-c1c(O)c(C(C)C)nn(C)c1=O [Compound 27]
0: Plant response rating, Crabgrass, Large [1, 13] | Plant response rating, Crabgrass, Large [1, 8] | Plant response rating, Crabgrass, Large [1, 9] | Crabgrass, Large plant response rating ([1]; Preemergence, scale 0 to 100) | Plant response rating, Russian Thistle [2, 14] | Plant response rating, Russian Thistle [2, 12] | Plant response rating, Russian Thistle ([2]; 62 g ai/ha, scale 0 to 100) | Russian Thistle plant response rating ([2]; scale 0 to 100) | Plant response rating, Cocklebur [3, 13] | Plant response rating, Cocklebur [3, 8] | Plant response rating, Cocklebur [3, 9] | Cocklebur plant response rating ([3]; Preemergence, scale 0 to 100)

Cc1cc(-c2ccc(Cl)cc2)nn1-c1c(OC(=O)c2ccccc2Cl)cnn(C)c1=O [Compound 38]
0: Plant response rating, Russian Thistle [2, 14] | Plant response rating, Russian Thistle [2, 12] | Plant response rating, Russian Thistle ([2]; 62 g ai/ha, scale 0 to 100) | Russian Thistle plant response rating ([2]; scale 0 to 100) | Cocklebur plant response rating ([3]; postemergence, 0-100 scale) | Plant response rating, Cocklebur [3, 15] | Plant response rating, Cocklebur [3, 4] | Plant response rating, Cocklebur [3, 16] | Plant response rating, Cocklebur [3, 13] | Plant response rating, Cocklebur [3, 8] | Plant response rating, Cocklebur [3, 9] | Cocklebur plant response rating ([3]; Preemergence, scale 0 to 100)
90: Plant response rating, Crabgrass, Large [1, 4]
70: Crabgrass, Large plant response rating ([1]; postemergence, 0-100 scale) | Plant response rating, Crabgrass, Large [1, 15]
98: Plant response rating, Crabgrass, Large [1, 13]
45: Crabgrass, Large plant response rating ([1]; Preemergence, scale 0 to 100)
100: Plant response rating, Crabgrass, Large [1, 16] | Plant response rating, Crabgrass, Large [1, 8] | Plant response rating, Crabgrass, Large [1, 9]

Cn1ncc(O)c(-n2nc(-c3ccc(Cl)cc3)cc2C2CC2)c1=O [Compound 45]
80: Plant response rating, Crabgrass, Large [1, 15]
65: Crabgrass, Large plant response rating ([1]; postemergence, 0-100 scale)
100: Plant response rating, Crabgrass, Large [1, 17] | Plant response rating, Crabgrass, Large [1, 16]
0: Plant response rating, Crabgrass, Large [1, 13] | Plant response rating, Crabgrass, Large [1, 8] | Plant response rating, Crabgrass, Large [1, 9] | Crabgrass, Large plant response rating ([1]; Preemergence, scale 0 to 100) | Plant response rating, Russian Thistle [2, 14] | Plant response rating, Russian Thistle [2, 18] | Russian Thistle plant response rating ([2]; scale 0 to 100) | Cocklebur plant response rating ([3]; postemergence, 0-100 scale) | Plant response rating, Cocklebur [3, 15] | Plant response rating, Cocklebur [3, 17] | Plant response rating, Cocklebur [3, 16] | Plant response rating, Cocklebur [3, 13] | Plant response rating, Cocklebur [3, 8] | Plant response rating, Cocklebur [3, 9] | Cocklebur plant response rating ([3]; Preemergence, scale 0 to 100)

Cc1ccc(-c2ccc(Cl)cc2)cc1-c1c(O)cnn(C)c1=O [Compound 46]
60: Plant response rating, Crabgrass, Large [1, 8]
0: Plant response rating, Crabgrass, Large [1, 13] | Crabgrass, Large plant response rating ([1]; Preemergence, scale 0 to 100) | Plant response rating, Russian Thistle [2, 14] | Plant response rating, Russian Thistle [2, 18] | Plant response rating, Russian Thistle ([2]; 62 g ai/ha, scale 0 to 100) | Russian Thistle plant response rating ([2]; scale 0 to 100) | Plant response rating, Cocklebur [3, 13] | Plant response rating, Cocklebur [3, 8] | Plant response rating, Cocklebur [3, 9] | Cocklebur plant response rating ([3]; Preemergence, scale 0 to 100)
100: Plant response rating, Crabgrass, Large [1, 9]
